Results reported in patent US20230210845A1, “DOSING METHODS FOR TREATMENT OF CARDIOVASCULAR CONDITIONS” (IMBRIA PHARMACEUTICALS, INC., priority 2020, published 2023).
Where two headings read alike, the source gives them in different places.

Tests used:
[1] = Protocol: Subjects received multiple oral doses of an IR formulation of IMB-1018972 or placebo once every 12 hours (q12h) for 14 consecutive days.
The doses were selected based upon the safety, tolerability, and PK data from the SAD part: • Group B1 multiple oral doses of an IR formulation of 150 mg IMB-1018972 (n=9) or matching placebo (n=3) twice daily (q12h) for 14 days; on Day 14 only a single morning dose was administered • Group B2: multiple oral doses of an IR formulation of 50 mg IMB-1018972 (n=9) or matching placebo (n=3) q12h for 14 days; on Day 14 only a single morning dose was administered
Before each morning dose, subjects fasted overnight for at least 10 hours following a snack on the evening before. On Days 1 and 14, subjects received a standardized breakfast that had to be consumed within 20 minutes. Dosing occurred at 30 minutes after the start of breakfast. Following dosing, subjects fasted for 4 hours until lunch. During fasting, fluids other than water were not allowed. On Days 2 to 13, breakfast was not standardized and was given within maximally 1 hour before dosing and consumed before dosing. No fasting after dosing was applicable on these days.

[2] = 28-day dog toxicology study (NOAEL and exposure); assay type: in vivo; details: for AUC0-8×2: Day 26, IMB-1018972 200 mg/kg/day
Protocol: Based on the nonclinical toxicology data, it was considered that subjects in this clinical study were not at unreasonable risk of adverse effects. […] For a 60-kg individual, the NOAEL dose would be 6480 mg. With a 10-fold safety factor applied, this would allow for a maximum recommended starting dose (MRSD) of 648 mg/day.7,8 The planned starting dose in the current Phase 1 study was 50 mg, equivalent to 0.83 mg/kg/day for a 60-kg subject. This starting dose is less than 10% of the MRSD determined from the dog NOAEL and less than 1% of the dog NOAEL.
The relevant animal study was the 28-day dog study where the NOAEL for IMB-1018972 was 200 mg/kg/day.

clinical [3] = assay: clinical
Protocol: Subjects with R2 below 0.80 or %AUCextra>20% were not excluded from the dose-proportionality evaluation based on AUC0-inf. A point estimate and 95% CI were produced for the slope. […] Since there were only 2 dose levels in the MAD part, no dose-proportionality analysis was performed for the MAD part.

clinical [4] = assay type: in vivo, human (healthy subjects); details: plasma; for Tmax: human, oral, 150 mg, read-out: median tmax
Protocol: Subjects from Group A4 of the SAD part were assigned to the integrated FE arm. After administration of the drug to fasting subjects in the SAD part, the FE arm used the same subjects and experimental procedures.
Before dosing, subjects fasted overnight for at least 10 hours following a snack on the evening before. Then, subjects received an FDA-defined high-fat breakfast that had to be consumed within 20 minutes. The entire breakfast had to be consumed by the subjects. Dosing occurred at 30 minutes after the start of breakfast. Following dosing, subjects fasted for 4 hours until lunch. During fasting, fluids other than water were not allowed.

[5] = FIH study: plasma PK, single and multiple dose results combined; assay type: in vivo, human (healthy subjects); details: all blood samples of subjects that received IMB-1018972
Protocol: This was a double-blind, randomized, placebo-controlled study, consisting of a single ascending dose (SAD) part with integrated food effect (FE) arm, a multiple ascending dose (MAD) part, to assess the safety, tolerability, and PK of ascending single and multiple oral doses of IMB-1018972 (immediate-release [IR] formulation in the SAD and MAD parts).
(§1) The blood samples were taken via an indwelling intravenous catheter or by direct venipuncture. The exact times of blood sampling were recorded in the eCRF.

[6] = MAD part: safety and tolerability (TEAEs); assay type: in vivo, human (healthy subjects)
Protocol: (§2) AEs were recorded from (first) admission until completion of the follow-up visit. Any clinically significant observations in results of clinical laboratory, 12-lead ECGs, vital signs, or physical examinations were recorded as AEs.
(§3) A treatment-emergent AE (TEAE) was defined as any event not present prior to (the first) administration of the study drug or any event already present that worsened in either severity or frequency following exposure to the study drug.
(§4) At several time points before and after drug administration, subjects were asked nonleading questions to determine the occurrence of AEs. Subjects were asked in general terms about any AEs at regular intervals during the study. In addition, all AEs reported spontaneously during the course of the study were recorded. Details included description of the event, date and time of onset, date and time of end, total duration, severity, relationship to study drug, intervention, seriousness, and outcome. All answers were interpreted by the Investigator and were recorded in the eCRF. All AEs were classified according to the Medical Dictionary for Regulatory Activities (MedDRA; Version 22.0) for AEs.
(§5) The severity of the AEs was rated as mild, moderate, or severe; the relationship between the AEs and the study drug was indicated as none, unlikely, possibly, likely, or definitely. Adverse events assessed as possibly, likely, or definitely were considered related to the study drug; AEs assessed as none or unlikely were considered not related to the study drug.

[7] = SAD part (and integrated FE arm): safety and tolerability (TEAEs)
Protocol: (§6) Each subject participated in only 1 group during the study.
as §2, §3, §4, §5

[8] = FIH study overall safety (deaths, clinical laboratory, vital signs, ECG, telemetry, physical examination)
Protocol: AEs were recorded from (first) admission until completion of the follow-up visit. Any clinically significant observations in results of clinical laboratory, 12-lead ECGs, vital signs, or physical examinations were recorded as AEs. […]
Systolic and diastolic blood pressure and pulse were recorded after the subject had been resting for at least 5 minutes in the supine position. […] Body temperature and respiratory rate were measured subsequently.
The ECG was recorded using an ECG machine equipped with computer-based interval measurements (with no/minimal disturbance by procedures). The following ECG parameters were recorded: heart rate, PR-interval, QRS-duration, QT-interval, QTcF-interval, and the interpretation of the ECG profile by the Investigator.
Physical examination was performed according to PRA SOPs. In addition, body weight and height were measured according to PRA SOPs.

clinical [9] = assay: clinical; parameters: species or system human (healthy subjects); details: human, in vivo, po, 35 mg
Protocol: as §6, §1

[10] = SAD part: PK in urine (urinary excretion, renal clearance); assay type: in vivo, human (healthy subjects); details: for CL renal: human, urine, read-out: geometric mean renal clearance (CLR) (converted)
Protocol: Urine collection for PK was only conducted in the SAD part, but not in the second period of the FE group A4.
The subjects were instructed to empty their bladders completely before study drug administration and at the end of each collection interval. A blank urine sample was collected within 12 hours prior to study drug administration. The exact times of urine collection and the urine weight of the entire interval (before and after addition of any urine stabilizers, if used) were recorded in the eCRF.

[11] = 150 mg IMB-1018972, fasted (FE group)
[12] = 150 mg IMB-1018972, fed (FDA high-fat breakfast)
[13] = single oral dose 35 mg trimetazidine, all 4 TEAEs

Structure (SMILES): COc1ccc(CN2CCN(CCO)CC2)c(OC)c1OC [IMB-1028814]
- state of concentrations at Day 14 dose (trough concentrations, visual inspection) ([1]; 150 mg fed and 50 mg fed q12h): steady-state conditions
- geometric mean Cmax higher on Day 1 in MAD part than after single dose in SAD part ([1]; 150 mg fed in both parts): 97%
- geometric mean t1/2 ([1]; Day 14 after 50 mg q12h fed): 2.79 h
- geometric mean t1/2 ([1]; Day 14 after 150 mg q12h fed): 4.48 h
- AUC0-8×2 ([2]; female dogs): 652,849 ng.h/mL
- AUC0-8×2 ([2]; male dogs): 417,733 ng.h/mL
- dose proportionality for Cmax, AUC0-t, AUC0-inf (95% CIs of slopes included 1) (clinical [3]; IMB-1018972 single-dose range 50 to 400 mg, fasted): no evidence of a deviation from dose proportionality
- median tmax (clinical [3]; plasma, single-dose range 50 mg to 400 mg IMB-1018972 IR, fasted): around 1 hours
- median tmax (clinical [4]; [11]): 1 h
- median tmax (clinical [4]; [12]): 2 h

Structure (SMILES): COc1ccc(CN2CCN(CCOC(=O)c3cccnc3)CC2)c(OC)c1OC [IMB-1018972]
- measurability of parent compound in plasma [5]: could be measured in only few plasma samples
- TEAEs of flushing ([6]; 50 mg q12h fed): No TEAEs of flushing were reported
- number of TEAEs of flushing (incidental and mild) ([6]; 150 mg q12h fed): 7
- subjects with TEAEs of flushing ([6]; 150 mg q12h fed (n=9)): 6
- subjects reporting drug-related TEAEs ([6]; MAD part (6 of 18)): 33.3%
- subjects reporting TEAEs not related to the study drug ([6]; MAD part (11 of 18)): 61.1%
- severity of TEAEs ([6]; MAD part, all TEAEs): mild severity
- total number of TEAEs ([6]; all IMB-1018972 subjects of MAD part): 35
- effect of dosing under fed conditions on TEAEs ([7]; FE arm of SAD part, 150 mg): appeared to attenuate the number and incidence of TEAEs
- TEAEs of flushing of mild severity ([7]; SAD part): 1
- TEAEs of flushing of moderate severity ([7]; SAD part): 5
- number of TEAEs of flushing (most common AEs) ([7]; SAD part): 6
- severe TEAEs ([7]; SAD part): No severe TEAEs were reported
- subjects reporting drug-related TEAEs of flushing ([7]; SAD part (6 subjects)): 25%
- subjects reporting drug-related TEAEs ([7]; SAD part (7 of 24)): 29.2%
- serious adverse event leading to withdrawal ([7]; Subject 131, 150 mg fasted, FE arm Group A4, moderate, unlikely related): influenza like illness
- total number of TEAEs ([7]; all IMB-1018972 subjects of SAD part): 45
- drug-related TEAEs ([7]; following 50 mg and 150 mg (fasted only group)): No drug-related TEAEs were reported
- subjects who reported flushing ([7]; single dose 150 mg fasted, FE arm (n=6)): 2
- maximum recommended starting dose (MRSD) ([2]; both, dog, in vivo, 28 days): 648 mg/day
- clinical laboratory, vital signs, 12-lead ECG, telemetry, physical examination ([8]; single and multiple oral doses, IR formulation): no findings of clinical relevance
- deaths ([8]; whole study): no deaths reported

Structure (SMILES): COc1ccc(CN2CCNCC2)c(OC)c1OC [trimetazidine]
- AUC(0-inf) (clinical [9]): 929 ng·h/mL
- AUC(0-t) (clinical [9]): 912 ng·h/mL
- Cmax (clinical [9]): 68.6 ng/mL
- half-life (clinical [9]): 7.49 h
- total number of TEAEs ([7]; single oral dose 35 mg trimetazidine): 4
- relationship of TEAEs to study drug [7, 13]: not to be related to the study drug
- severity of TEAEs [7, 13]: mild severity
- Tmax (clinical [3]; human, in vivo): 1.5 to 2 h
- time postdose at which detectable concentrations generally seen (clinical [3]; human, in vivo): 15 to 30 min
- Tmax (clinical [3]; human, in vivo, po, 50 mg): 1 to 2 h
- half-life (clinical [3]; human, plasma, oral): 6.76 to 8 h
- CL renal ([10]; oral, range over single doses 50 mg to 400 mg IMB-1018972): 302 to 347 mL/min
- CL renal ([10]; po, 35 mg): 340 mL/min
- arithmetic mean percent of the dose excreted in urine ([10]; within 48 hours after single oral dose of 35 mg trimetazidine): 54.47%
- Tmax (clinical [4]; [11]): 1.5 h
- Tmax (clinical [4]; [12]): 4 h
